In ChEMBL document CHEMBL1201862, “PubChem BioAssay data set” (2004):
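Interpolation was linear, between the two tested concentrations surrounding the appropriate level; five concentrations were tested over 48 hours in 96-well plates. The concentration for 50% growth inhibition is given as GI50.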 Activity calls are given as the source filed them. Rule as the data show it: active = GI50 up to about 1.1 µM and inactive = higher.

Legend:
Assay in all cases: NCI-60 cell line screen, 48 h
[1] = test system: Malme-3M
[2] = test system: HCT-15
[3] = test system: LOX IMVI
[4] = test system: SF-268
[5] = test system: NCI-H522
[6] = test system: SNB-75
[7] = test system: K562
[8] = test system: HT-29
[9] = test system: OVCAR-5
[10] = test system: ACHN
[11] = test system: OVCAR-8
[12] = test system: UACC-257
[13] = test system: RPMI-8226
[14] = test system: UACC-62
[15] = test system: A498

Compound | GI50 [1] | GI50 [2] | GI50 [3] | GI50 [4] | GI50 [5] | GI50 [6] | GI50 [7] | GI50 [8] | GI50 [9] | GI50 [10] | GI50 [11] | GI50 [12] | GI50 [13] | GI50 [14] | GI50 [15]
O=C(CC1(O)C(=O)Nc2c(Cl)ccc(Cl)c21)c1ccc(F)cc1 (centres undefined) | 69.5 µM (inactive) | 38.7 µM | 32.7 µM (inactive) | 36.1 µM (inactive) | 30.3 µM (inactive) | 24.1 µM (inactive) | 23.3 µM (inactive) | 40.4 µM (inactive) | > 100 µM (inactive) | 66.1 µM (inactive) | 36.3 µM (inactive) | 33.5 µM (inactive) | 18 µM (inactive) | – | –
OC12CCC3(OC4CCCCO4)c4ccccc4C3C1c1ccccc12 (centres undefined) | > 100 µM (inactive) | 24.2 µM | 38.8 µM (inactive) | 65.9 µM (inactive) | 37.6 µM (inactive) | > 100 µM (inactive) | 46 µM (inactive) | 43.9 µM (inactive) | – | 41.7 µM (inactive) | 74.3 µM (inactive) | 91.2 µM (inactive) | 36 µM (inactive) | 56.8 µM (inactive) | –
COc1ccc(NC(=O)CC/C(CC(=O)c2ccccc2Cl)=N\Nc2nnc(C)n2N)cc1 | > 100 µM (inactive) | > 100 µM | > 100 µM (inactive) | > 100 µM (inactive) | – | – | 61.9 µM (inactive) | > 100 µM (inactive) | > 100 µM (inactive) | > 100 µM (inactive) | > 100 µM (inactive) | > 100 µM (inactive) | – | > 100 µM (inactive) | –
COc1ccc(C(=O)C(CC2C(=O)NC(=O)NC2=O)c2ccc(OC)cc2)cc1 (centres undefined) | > 100 µM (inactive) | > 100 µM | > 100 µM (inactive) | > 100 µM (inactive) | > 100 µM (inactive) | > 100 µM (inactive) | > 100 µM (inactive) | > 100 µM (inactive) | > 100 µM (inactive) | > 100 µM (inactive) | > 100 µM (inactive) | > 100 µM (inactive) | – | > 100 µM (inactive) | > 100 µM (inactive)
C/C(=N/O)c1ccc2c(c1)/C(=N/O)c1cc(/C(C)=N/O)ccc1-2 | 11 µM (inactive) | 14.1 µM | 13 µM (inactive) | 14.9 µM (inactive) | 18.9 µM (inactive) | 17.9 µM (inactive) | 17.8 µM (inactive) | 12.6 µM (inactive) | 17.4 µM (inactive) | 8.53 µM (inactive) | 16.7 µM (inactive) | 2.39 µM (inactive) | 26.5 µM (inactive) | 14.2 µM (inactive) | –
CN(C)/N=N/c1cccc(C(N)=O)c1 | > 100 µM (inactive) | > 100 µM | – | > 100 µM (inactive) | – | 69.3 µM (inactive) | > 100 µM (inactive) | > 100 µM (inactive) | – | > 100 µM (inactive) | > 100 µM (inactive) | – | > 100 µM (inactive) | – | > 100 µM (inactive)
C=CCC1C(=O)CC2(C)CC(=O)C(CC=C)C12C (centres undefined) | > 100 µM (inactive) | > 100 µM | > 100 µM (inactive) | > 100 µM (inactive) | > 100 µM (inactive) | 76.9 µM (inactive) | > 100 µM (inactive) | > 100 µM (inactive) | > 100 µM (inactive) | > 100 µM (inactive) | > 100 µM (inactive) | > 100 µM (inactive) | > 100 µM (inactive) | > 100 µM (inactive) | –
COc1ccc(NC(=O)CC(=O)N/N=C(\C)c2cc3ccccc3oc2=O)cc1 | > 100 µM (inactive) | > 100 µM | > 100 µM (inactive) | – | > 100 µM (inactive) | > 100 µM (inactive) | > 100 µM (inactive) | > 100 µM (inactive) | – | > 100 µM (inactive) | > 100 µM (inactive) | 89.9 µM (inactive) | > 100 µM (inactive) | > 100 µM (inactive) | –
Cc1nc2sccn2c1C(=O)NN | > 100 µM (inactive) | > 100 µM | > 100 µM (inactive) | > 100 µM (inactive) | > 100 µM (inactive) | – | > 100 µM (inactive) | > 100 µM (inactive) | > 100 µM (inactive) | > 100 µM (inactive) | > 100 µM (inactive) | > 100 µM (inactive) | > 100 µM (inactive) | > 100 µM (inactive) | –
